Two molecules from PMC4645630 (The Journal of Biological Chemistry, 2015) can be followed below.

For orientation: EC50 means the midpoint of the concentration-response curve.

The target in assay [1] is T1, GCGR with RAMP2 (Homo sapiens, UniProt O60895+P47871).
T1 construct: expressed in transfected cells; host or cells: HEK-293 (293T)
Briefly: Yeast growth reporter assay, GPA1/Gαi chimera strain expressing GCGR and RAMP2. The format is cell-based. Particulars: Table 5, yeast GPA1/Gαi. The method, then:
(§1) General yeast procedures were performed as described previously ([17], [18]). […] Mammalian GPCRs and RAMPs were introduced to the yeast strains under the control of the GAPDH promoter using plasmids containing either ura3 (p426-GPD) or leu2 (p425-GPD). Plasmids were transformed in a 1:1 ratio to enable equal expression levels of both the RAMP and receptors. Transformation was achieved using the lithium acetate/single-stranded DNA/polyethylene glycol method as described previously ([20]). Positive transformants were selected and maintained on medium lacking uracil and leucine. Receptor signaling was measured using the yeast growth assay ([21]) adapted as described previously ([17]). Initially, cell growth was performed in SD−URA−LEU medium at 30 °C to select for only those cells expressing both plasmids. Cells were then cultured to remove basal activity in SD−URA−LEU−HIS medium overnight at 30 °C and assayed using fluorescein-di-β-D-glucopyranoside-supplemented medium in the presence of different concentrations of ligand (0.01 nM to 100 mM). Fluorescence was measured on a TECAN Infinite M200 microplate reader (TECAN Ultra Evolution, Reading, UK).
(§2) Data were analyzed using Prism version 6.0e (GraphPad Software, San Diego, CA). EC50 and Emax values were obtained through fitting of a three-parameter logistic equation. Relative efficacy (log τ) and equilibrium dissociation constants (log KA) were generated through use of an operational model for partial agonism ([23]). […] Statistical differences were analyzed before data were normalized, using a Student's test or one-way analysis of variance (ANOVA) with Bonferroni's or Dunnett's multiple comparisons as appropriate, and p < 0.05 was considered significant.
For orientation: Reporter assays use an easily measured gene product as a stand-in for the process of interest.

Assay [2] has as its target T2, GCGR (Homo sapiens, UniProt P47871). Briefly: Yeast growth reporter assay, GPA1/Gαi chimera strain expressing GCGR with vector. The format is cell-based. Details: expressed in transfected cells; host or cells: HEK-293 (293T). The method, then: as §1, with “Cells were then cultured to remove basal activity in SD−URA−LEU−HIS medium overnight at 30 °C and assayed using fluorescein-di-β-D-glucopyranoside-supplemented medium in the presence of different concentrations of ligand (0.01 nM to 100 mM).” left out
(§3) Data were analyzed using Prism version 6.0e (GraphPad Software, San Diego, CA). […] Statistical differences were analyzed before data were normalized, using a Student's test or one-way analysis of variance (ANOVA) with Bonferroni's or Dunnett's multiple comparisons as appropriate, and p < 0.05 was considered significant.

For assay [3], the target named is T1, GCGR with RAMP2. Nature of the assay: cAMP accumulation assay, HEK-293 cells co-expressing GCGR and RAMP2. Particulars: Table 3, cAMP. The assay is classed as cell-based. Here is the method: as §2
On the technique in general: Changes in cAMP serve as a functional read-out for many G protein-coupled receptors.

Assay [4] has as its target T2, GCGR. Nature of the assay: Yeast growth reporter assay, GPA1/Gαs chimera strain expressing GCGR with vector. The format is cell-based. Also noted: expressed in transfected cells; host or cells: HEK-293 (293T). The method, then:
as §1, with “Cells were then cultured to remove basal activity in SD−URA−LEU−HIS medium overnight at 30 °C and assayed using fluorescein-di-β-D-glucopyranoside-supplemented medium in the presence of different concentrations of ligand (0.01 nM to 100 mM).” left out
as §3

Assay [5] concerns the target T1, GCGR with RAMP2. Nature of the assay: Whole cell competition binding with [125I]glucagon, GCGR with RAMP2. Particulars: whole cells, [125I]glucagon 0.1 nM, 16 h at 4 °C.
Assay [6] addresses T2, GCGR. Briefly: Whole cell competition binding with [125I]glucagon, GCGR without RAMP2. Particulars: no RAMP2. Details: expressed in transfected cells. Here is the method: Cells were seeded into 6-well plates and grown to 80% confluence before transfection with 1.5 μg of plasmid DNA and incubated for a further 24 h. Medium was then replaced with fresh DMEM, and cells were transferred onto a 96-well plate coated with poly-D-lysine and incubated for 24 h to achieve confluence prior to assay. […] For the assay, cells were washed in assay buffer, 0.1 nM of radioligand and various concentrations of the peptides were added, and the plate was incubated for 16 h at 4 °C. Following washing with ice-cold assay buffer, 100 μl of NaOH (0.1 M) was added to each well, and the plate was incubated for 5 min on ice. Cells were removed, and the plate was washed with 100 μl of HCl (0.1 M). Radioactivity was determined in 2 ml of Safefluor scintillant (PerkinElmer Life Sciences) using a liquid scintillation counter with a count time of 3 min/sample. Values were corrected for nonspecific binding as determined by the amount of radioligand detected bound to cells not expressing GCGR.

The target in assay [7] is T1, GCGR with RAMP2. Nature of the assay: Yeast growth reporter assay, GPA1/Gαs chimera strain expressing GCGR and RAMP2. The format is cell-based. Particulars: Table 4, yeast GPA1/Gαs. Here is the method: as §1, §2
Assay [8] has as its target T2, GCGR. Briefly: cAMP accumulation assay, HEK-293 cells expressing GCGR with vector control. The format is cell-based. Also noted: expressed in transfected cells; host or cells: HEK-293 (293T). The method, then:
as §2

[9] abbreviates: GCGR + RAMP2, mean ± S.E., five repeats.
The mark [10] stands for this setting: RAMP2, operational model relative to glucagon.
[11] abbreviates: RAMP2, percentage of glucagon response without RAMP co-expression.

T1 sequence (P47871 26-477): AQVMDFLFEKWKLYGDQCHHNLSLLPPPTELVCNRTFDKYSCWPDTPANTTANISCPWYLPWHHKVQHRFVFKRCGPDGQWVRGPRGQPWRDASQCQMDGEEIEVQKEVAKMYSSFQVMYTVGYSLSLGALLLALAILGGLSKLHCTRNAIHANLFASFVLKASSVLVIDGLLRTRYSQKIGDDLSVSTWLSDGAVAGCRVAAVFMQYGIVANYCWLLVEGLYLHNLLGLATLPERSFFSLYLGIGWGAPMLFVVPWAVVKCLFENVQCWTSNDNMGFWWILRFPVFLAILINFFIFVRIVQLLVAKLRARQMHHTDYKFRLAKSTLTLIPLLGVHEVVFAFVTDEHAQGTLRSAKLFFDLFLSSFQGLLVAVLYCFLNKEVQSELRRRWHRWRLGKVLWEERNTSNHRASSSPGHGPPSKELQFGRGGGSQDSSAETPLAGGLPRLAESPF
T1 sequence (O60895 43-175 partner): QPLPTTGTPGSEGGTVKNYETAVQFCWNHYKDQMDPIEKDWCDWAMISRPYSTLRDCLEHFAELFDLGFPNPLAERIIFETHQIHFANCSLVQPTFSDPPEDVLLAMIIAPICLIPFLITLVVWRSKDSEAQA
T2 sequence (P47871 26-477): as the sequence (P47871 26-477) above

On to `CCCCCCCCCCCCCCCC(=O)N[C@@H](CCC(=O)NCCCC[C@H](NC(=O)[C@H](C)NC(=O)[C@H](C)NC(=O)[C@H](CCC(N)=O)NC(=O)CNC(=O)[C@H](CCC(=O)O)NC(=O)[C@H](CC(C)C)NC(=O)[C@H](Cc1ccc(O)cc1)NC(=O)[C@H](CO)NC(=O)[C@H](CO)NC(=O)[C@@H](NC(=O)[C@H](CC(=O)O)NC(=O)[C@H](CO)NC(=O)[C@@H](NC(=O)[C@H](Cc1ccccc1)NC(=O)[C@@H](NC(=O)CNC(=O)[C@H](CCC(=O)O)NC(=O)[C@H](C)NC(=O)[C@@H](N)Cc1c[nH]cn1)[C@@H](C)O)[C@@H](C)O)C(C)C)C(=O)N[C@@H](CCC(=O)O)C(=O)N[C@@H](Cc1ccccc1)C(=O)N[C@H](C(=O)N[C@@H](C)C(=O)N[C@@H](Cc1c[nH]c2ccccc12)C(=O)N[C@@H](CC(C)C)C(=O)N[C@H](C(=O)N[C@@H](CCCNC(=N)N)C(=O)NCC(=O)N[C@@H](CCCNC(=N)N)C(=O)NCC(=O)O)C(C)C)[C@@H](C)CC)C(=O)O` [Liraglutide], for which the pEC50 entry was “N.R” at GCGR with RAMP2 [1] (setting [9]); “N.R” on GCGR with RAMP2 [3] (HEK-293, GCGR + RAMP2, mean ± S.E., five repeats); “N.R” on GCGR with RAMP2 [7] (setting [9]). Also, the “log τ” value at GCGR with RAMP2 [1] (setting [10]) is “N.R”; at GCGR with RAMP2 [3] (GCGR + RAMP2, coupling efficiency, operational model relative to glucagon) it was “N.R”; on GCGR with RAMP2 [7] (setting [10]), “N.R”. Moreover, the pKA result is “N.R” on GCGR with RAMP2 [1] (setting [10]); “N.R” on GCGR with RAMP2 [3] (GCGR + RAMP2, operational model for partial agonism relative to glucagon); “N.R” on GCGR with RAMP2 [7] (setting [10]). The Emax result at GCGR with RAMP2 [1] (setting [11]) is “N.R”; at GCGR [2], 84 ± 9.4%; on GCGR with RAMP2 [3] (GCGR + RAMP2, percentage of glucagon response without RAMP co-transfection), “N.R”; on GCGR [4] it was 80.1 ± 7.5%; at GCGR with RAMP2 [7] (setting [11]) it was “N.R”. The EC50 was 20 nM at GCGR [2] (Table 5, yeast GPA1/Gαi, GCGR + vector, mean ± S.E., five repeats, SEM); 3160 nM at GCGR [4] (Table 4, yeast GPA1/Gαs, GCGR + vector, mean ± S.E., five repeats, SEM); 10 nM on GCGR [8] (Table 3, cAMP, HEK-293, GCGR + vector, mean ± S.E., five repeats, SEM). The “binding to the GCGR upon RAMP2 co-transfection” value on GCGR with RAMP2 [5] is given as “failed to bind”. In addition, the “affinity for the GCGR relative to the native peptide (glucagon)” value on GCGR [6] (whole cell competition binding) is “higher affinity”. Moreover, the “binding to the GCGR in competition with glucagon” value at GCGR [6] (whole cells, [125I]glucagon 0.1 nM, 16 h at 4 °C) was “bound to the GCGR”.
With des-His^1-[Glu^9]glucagon(1–29) amide, the “effect of GCGR antagonist on GLP-1 and liraglutide signaling through the GCGR” value on GCGR [8] (cAMP, HEK-293 cells with GCGR) was “inhibited”.
